Patent US7709014B2, “Hydroxy-oligocarboxylic esters: effects on nerve and use for cutaneous and mucocutaneous organs or sites” (priority 2005, dated 2010)
Counter-ions that a name gives are not always drawn.

What was measured:
[1] = test system: nerves of the lips; assay: Topical application of ester ointment or cream on the lips of human subjects: sensual, sensational, plumping or numbing feelings; type: in vivo; conditions: for duration of the feelings of the lips / sensual, sensational or plumping feelings of the lips / time after application until the lips experienced the feelings: 10% in water-non-washable ointment, human; for feelings of the lips: cream or ointment containing 10%, topically applied to lips (general description)
From the text: The mucocutaneous organs or sites include lips, mouth, gum, nostrils, nipples, vulva, vagina, penis and anus.
Ethyl glycolate 10 g was mixed with 90 g ointment prepared from white petrolatum 50 parts, mineral oil 40 parts and white beeswax 10 parts. The composition thus prepared contained 10% ethyl glycolate in a hydrophobic ointment that was not washable with water (a water-non-washable ointment).
A subject, topically applied the above 10% ethyl glycolate ointment on their lips.
L-Ethyl lactate 10 g was mixed with 90 g ointment prepared from white petrolatum 50 parts, mineral oil 40 parts and white beeswax 10 parts. The composition thus prepared contained 10% L-ethyl lactate in water-non-washable ointment. A subject, topically applied the above 10% L-ethyl lactate ointment on their lips.
DL-Diethyl malate 10 g was mixed with 90 g ointment prepared from white petrolatum 50 parts, mineral oil 40 parts and white beeswax 10 parts. The composition thus prepared contained 10% DL-diethyl malate in a water-non-washable ointment.
A subject, topically applied the above 10% DL-diethyl malate ointment on their lips.
D-Diethyl tartarate 10 g was mixed with 90 g ointment prepared from white petrolatum 50 parts, mineral oil 40 parts and white beeswax 10 parts. The composition thus prepared contained 10% D-diethyl tartarate in a water-non-washable ointment.
A subject, topically applied the above 10% D-diethyl tartarate ointment on their lips.
L-Diethyl tartarate 10 g was mixed with 90 g ointment prepared from white petrolatum 50 parts, mineral oil 40 parts and white beeswax 10 parts. The composition thus prepared contained 10% L-diethyl tartarate in a water-non-washable ointment. A subject, topically applied the above 10% L-diethyl tartarate ointment on their lips.
Trimethyl citrate 10 g was mixed with 90 g ointment prepared from white petrolatum 50 parts, mineral oil 40 parts and white beeswax 10 parts. The composition thus prepared contained 10% trimethyl citrate in a water-non-washable ointment.
A subject, topically applied the above 10% trimethyl citrate ointment on their lips.
Lidocaine 5 g was dissolved in warm propylene glycol 20 ml, and the solution thus obtained was mixed with 75 g ointment prepared from white petrolatum 50 parts, mineral oil 40 parts and white beeswax 10 parts. The composition thus prepared contained 5% lidocaine in a water-non-washable ointment.
A subject, topically applied the above 5% lidocaine ointment on their lips.
Tripropyl citrate 10 g was mixed with 90 g ointment prepared from white petrolatum 50 parts, mineral oil 40 parts and white beeswax 10 parts. The composition thus prepared contained 10% tripropyl citrate in a water-non-washable ointment.
A subject, topically applied the above 10% tripropyl citrate ointment on their lips.
Tri-isopropyl citrate 10 g was mixed with 90 g ointment prepared from white petrolatum 50 parts, mineral oil 40 parts and white beeswax 10 parts. The composition thus prepared contained 10% tri-isopropyl citrate in a water-non-washable ointment.
A subject, topically applied the above 10% tri-isopropyl citrate ointment on their lips.

[2] = test system: mucocutaneous organs or sites; assay: Topical application to mucocutaneous organs or sites: general findings on sensuous, sensational and mild anesthetic effects; type: in vivo, human; conditions: for sensuous or mild anesthetic effect: topical application, same conditions as the hydroxy-oligocarboxylic esters
From the text: The present invention is based on the discovery that topical application of a hydroxy-oligocarboxylic ester, preferably a hydroxydicarboxylic ester or more preferably a hydroxytricarboxylic ester such as tripropyl citrate on topical application can produce sensuous, sensational and mild anesthetic effects on mucocutaneous organs or sites, such as lips, mouth, gum, nostrils, nipples, vulva, vagina, penis and anus. […] The sensuous and sensational effects produced by the hydroxy-oligocarboxylic ester, preferably a hydroxydicarboxylic ester or more preferably a hydroxytricarboxylic ester are quite different from the numbing effects induced by local anesthetics such as lidocaine and procaine. The sensuous, sensational and mild anesthetic effects produced by the hydroxy-oligocarboxylic ester according to the present invention generally last from a few minutes to a few hours. Such nerve-acting sensation or effect has many cosmetic, dental and dermatological applications. For example, a lipstick or lip balm comprising a hydroxy-oligocarboxylic ester, preferably a hydroxydicarboxylic ester or more preferably a hydroxytricarboxylic ester, can provide a sensuous or sensational feeling after topical application to lips of a human subject. Such sensuous action and certain anesthetic effects on nervous system produced by the hydroxy-oligocarboxylic ester can have beneficial applications such as to relieve itch or pain of lips, mouth, gum, nostrils, nipples, vulva, vagina, penis and anus, and for conditions associated with eczema, hemorrhoids, dry or aging-associated changes of the vulva and vagina.

[3] = test system: itchy and eczematous skin (atopic eczema); assay: Topical application on itching, eczematous skin of a human subject: relief of itch; type: in vivo; conditions: for effect on itch associated with eczema or psoriasis / time after topical application until the itch disappears: cream or ointment containing 10%, topically applied to eczematous or psoriatic lesions (general description)
Protocol: A composition comprising a hydroxy-oligocarboxylic ester, preferably a hydroxydicarboxylic ester, and more preferably a hydroxytricarboxylic ester, can also be topically applied to mucocutaneous or skin lesions. For example, a cream or ointment containing 10% tripropyl citrate or tri-isopropyl citrate can be topically applied to eczematous or psoriatic lesions twice daily for 4 to 16 weeks.
Tripropyl citrate 10 g and propylene glycol 20 ml were mixed with hydrophilic ointment or oil-in-water emulsion 70 g. The composition thus prepared contained 10% tripropyl citrate in water-soluble oil-in-water emulsion.
A subject, having atopic eczema with severe itching skin, topically applied the above 10% tripropyl citrate cream on their right leg with itchy eczematous lesions. […]

[4] = test system: itchy and eczematous skin (atopic eczema); assay: as above; type: in vivo; conditions: 10% in water-non-washable ointment, itching skin of right lower leg, subject with atopic eczema
[5] = 5% in water-non-washable ointment with propylene glycol, topically applied on lips, subject
[6] = 10% cream (water-soluble oil-in-water emulsion with propylene glycol), itchy eczematous lesions of right leg, subject with atopic eczema

Compound	duration of the feelings of the lips ([1]; topically applied on lips)	sensual, sensational or plumping feelings of the lips ([1]; topically applied on lips)	time after application until the lips experienced the feelings ([1]; topically applied on lips)	other results
CCOC(=O)CC(O)C(=O)OCC (racemic) [DL-diethyl malate, DL-Diethyl malate]	10 to 20 min	sensual and plumping feelings	one to two	–
CCOC(=O)[C@@H](O)[C@H](O)C(=O)OCC [D-diethyl tartarate, D-Diethyl tartarate]	10 to 20 min	slight sensual and plumping feelings	one to two	–
CCOC(=O)[C@H](O)[C@@H](O)C(=O)OCC [L-diethyl tartarate, L-Diethyl tartarate]	10 to 20 min	slight sensual and plumping feelings	one to two	–
CCOC(=O)[C@H](C)O [L-ethyl lactate, L-Ethyl lactate, reference compound]	–	no sensual or sensational feelings during the next 30 minutes	–	–
CCOC(=O)CO [ethyl glycolate, Ethyl glycolate, reference compound]	–	no sensual or sensational feelings during the next 30 minutes	–	sensuous or mild anesthetic effect [2]: does not produce a sensuous or mild anesthetic effect
CCOC(=O)C(C)O (stereo not shown) [ethyl lactate]	–	–	–	sensuous or mild anesthetic effect [2]: does not produce a sensuous or mild anesthetic effect
CCN(CC)CC(=O)Nc1c(C)cccc1C [lidocaine, Lidocaine, reference compound]	–	–	–	duration of the numbing effect [1, 5]: several; numbing effect on the lips [1, 5]: the lips felt numb; time after application until the lips felt numb [1, 5]: a few
CC(C)OC(=O)CC(O)(CC(=O)OC(C)C)C(=O)OC(C)C [tri-isopropyl citrate, Tri-isopropyl citrate]	about an hour	sensual and sensational feelings	a few	effect on itch associated with eczema or psoriasis [3]: usually disappears; time after topical application until the itch disappears [3]: a few; feelings of the lips [1]: sensual and sensational pleasure with very mild anesthetic effects
O=C(CC(O)(CC(=O)OCc1ccccc1)C(=O)OCc1ccccc1)OCc1ccccc1 [tribenzyl citrate, Tribenzyl citrate]	–	slight sensual and sensational feelings	a few	–
CCOC(=O)CC(O)(CC(=O)OCC)C(=O)OCC [triethyl citrate, Triethyl citrate]	20 to 30 min	sensual and plumping feelings	one to two	feelings of the lips [1]: sensual and sensational pleasure with very mild anesthetic effects; effect on itch [4]: the itch stopped; time after application until the itch stopped [4]: a few; time the skin remained free of itch [4]: 4 h
COC(=O)CC(O)(CC(=O)OC)C(=O)OC [trimethyl citrate, Trimethyl citrate]	–	very slight sensual and plumping feelings	one to two	–
CCCOC(=O)CC(O)(CC(=O)OCCC)C(=O)OCCC [tripropyl citrate, Tripropyl citrate]	90 to 120 min	sensual and sensational feelings	a few	effect on itch [3, 6]: the itch disappeared completely; time after application until the itch disappeared [3, 6]: a few; time the skin remained free of itch [3, 6]: 4 h; effect on itch associated with eczema or psoriasis [3]: usually disappears; time after topical application until the itch disappears [3]: a few; feelings of the lips [1]: sensual and sensational pleasure with very mild anesthetic effects; sensuous and sensational effects compared with trimethyl citrate ([2]; strength and duration, compared with trimethyl citrate): much stronger and longer-lasting sensuous and sensational effects
